Experimental data from ChEMBL document CHEMBL5463728, “Data for DCP probe BAY-6096” (2023).
pKi: −log10 of the molar value.

Tests used:
[1] = target: Glutamate NMDA receptor (Rattus norvegicus) (UniProt P35439+Q00959+Q00960+Q00961+Q62645+Q8VHN2+Q9R1M7); settings: Compound concentration 10.0 uM
[2] = target: Monoamine oxidase B (MAO-B) (Homo sapiens, UniProt P27338); experiment: Inhibition of Monoamine Oxidase MAO-B at compound concentration of 10.0 uM in the Eurofins-Panlabs enzyme assay (Eurofins_assay_140120); set-up: substrate with concentration 50 uM Kynuramine, incubation time 60 min, incubation temperature 37 C; settings: recombinant human MAO-B expressed in insect Hi5 cells, probe Kynuramine (50 uM), compound concentration 10 uM
D(2) dopamine receptor [3] = target: T1, D(2) dopamine receptor (Homo sapiens, UniProt P14416); settings: Compound concentration 10.0 uM
T1 sequence (P14416 whole entry): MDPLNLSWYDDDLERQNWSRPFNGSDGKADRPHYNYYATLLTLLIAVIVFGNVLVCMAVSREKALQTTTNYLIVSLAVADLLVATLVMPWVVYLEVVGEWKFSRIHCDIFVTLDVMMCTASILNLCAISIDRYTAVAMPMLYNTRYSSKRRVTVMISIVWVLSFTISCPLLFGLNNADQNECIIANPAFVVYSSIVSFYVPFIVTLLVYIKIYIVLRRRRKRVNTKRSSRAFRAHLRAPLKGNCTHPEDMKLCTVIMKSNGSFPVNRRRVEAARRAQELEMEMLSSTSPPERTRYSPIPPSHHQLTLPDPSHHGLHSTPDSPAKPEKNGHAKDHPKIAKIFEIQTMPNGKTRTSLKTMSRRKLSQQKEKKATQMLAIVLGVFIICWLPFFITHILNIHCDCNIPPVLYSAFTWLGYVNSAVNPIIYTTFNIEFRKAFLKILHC

[4] = target: Glutamate receptor ionotropic, kainate (Rattus norvegicus) (UniProt P22756+Q01812+P42260+P42264+Q63273); settings: Compound concentration 10.0 uM
[5] = target: Purinergic P2Y (Rattus norvegicus) (UniProt O35811+Q9EPX4+P49651+Q63371+P41232+O35881+Q6GUG4); settings: Compound concentration 10.0 uM
[6] = target: Androgen receptor (Homo sapiens) (UniProt P10275); settings: Compound concentration 10.0 uM
Chain of Androgen receptor (Homo sapiens) (P10275 whole entry): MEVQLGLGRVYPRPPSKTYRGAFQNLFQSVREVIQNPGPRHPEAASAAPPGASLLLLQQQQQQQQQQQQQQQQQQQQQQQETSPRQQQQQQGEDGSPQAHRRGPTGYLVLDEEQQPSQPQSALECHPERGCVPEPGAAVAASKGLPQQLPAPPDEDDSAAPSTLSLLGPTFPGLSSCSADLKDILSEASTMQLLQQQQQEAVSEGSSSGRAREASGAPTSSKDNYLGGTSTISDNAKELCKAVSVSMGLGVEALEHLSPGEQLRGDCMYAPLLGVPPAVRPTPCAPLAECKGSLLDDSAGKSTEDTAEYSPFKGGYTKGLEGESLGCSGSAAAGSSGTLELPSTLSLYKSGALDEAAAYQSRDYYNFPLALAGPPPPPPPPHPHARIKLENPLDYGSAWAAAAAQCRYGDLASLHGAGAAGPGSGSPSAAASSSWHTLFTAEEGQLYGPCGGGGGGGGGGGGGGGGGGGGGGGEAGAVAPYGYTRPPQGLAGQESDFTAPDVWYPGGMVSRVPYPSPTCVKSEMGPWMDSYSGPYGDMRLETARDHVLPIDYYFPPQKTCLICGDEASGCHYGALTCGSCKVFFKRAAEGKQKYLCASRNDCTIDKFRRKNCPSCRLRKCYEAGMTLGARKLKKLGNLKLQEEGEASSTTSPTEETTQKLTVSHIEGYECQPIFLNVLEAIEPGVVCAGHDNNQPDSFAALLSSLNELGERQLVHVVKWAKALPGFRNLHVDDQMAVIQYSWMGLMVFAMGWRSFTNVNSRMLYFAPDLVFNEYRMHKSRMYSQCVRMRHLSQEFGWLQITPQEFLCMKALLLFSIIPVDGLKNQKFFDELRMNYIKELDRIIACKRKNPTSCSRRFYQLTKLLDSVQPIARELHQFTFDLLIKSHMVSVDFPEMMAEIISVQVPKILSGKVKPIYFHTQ

[7] = target: Prostaglandin G/H synthase 1 (Homo sapiens) (UniProt P23219); experiment: Inhibition of Cyclooxygenase COX-1 at compound concentration of 10.0 uM in the Eurofins-Panlabs enzyme assay (Eurofins_assay_116020); settings: Compound concentration 10.0 uM
[8] = target: Histamine H2 receptor (Homo sapiens) (UniProt P25021); settings: Compound concentration 10.0 uM
[9] = target: D(1A) dopamine receptor (Homo sapiens) (UniProt P21728); settings: Compound concentration 10.0 uM
Chain of D(1A) dopamine receptor (Homo sapiens) (P21728 whole entry): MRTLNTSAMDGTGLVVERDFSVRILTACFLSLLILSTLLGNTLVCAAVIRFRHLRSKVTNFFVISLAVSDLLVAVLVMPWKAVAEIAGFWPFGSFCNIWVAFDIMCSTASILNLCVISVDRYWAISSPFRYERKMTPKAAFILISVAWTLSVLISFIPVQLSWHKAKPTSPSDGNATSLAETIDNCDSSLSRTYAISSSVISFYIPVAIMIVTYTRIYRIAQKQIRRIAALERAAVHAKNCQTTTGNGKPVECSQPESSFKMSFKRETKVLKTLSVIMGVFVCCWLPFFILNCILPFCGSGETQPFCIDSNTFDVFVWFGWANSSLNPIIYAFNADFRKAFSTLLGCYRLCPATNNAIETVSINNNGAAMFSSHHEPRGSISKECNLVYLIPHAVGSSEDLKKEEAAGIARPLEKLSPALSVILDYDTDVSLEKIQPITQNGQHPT

[10] = target: Sodium-dependent dopamine transporter (Homo sapiens) (UniProt Q01959); settings: Compound concentration 10.0 uM
Chain of Sodium-dependent dopamine transporter (Homo sapiens) (Q01959 whole entry): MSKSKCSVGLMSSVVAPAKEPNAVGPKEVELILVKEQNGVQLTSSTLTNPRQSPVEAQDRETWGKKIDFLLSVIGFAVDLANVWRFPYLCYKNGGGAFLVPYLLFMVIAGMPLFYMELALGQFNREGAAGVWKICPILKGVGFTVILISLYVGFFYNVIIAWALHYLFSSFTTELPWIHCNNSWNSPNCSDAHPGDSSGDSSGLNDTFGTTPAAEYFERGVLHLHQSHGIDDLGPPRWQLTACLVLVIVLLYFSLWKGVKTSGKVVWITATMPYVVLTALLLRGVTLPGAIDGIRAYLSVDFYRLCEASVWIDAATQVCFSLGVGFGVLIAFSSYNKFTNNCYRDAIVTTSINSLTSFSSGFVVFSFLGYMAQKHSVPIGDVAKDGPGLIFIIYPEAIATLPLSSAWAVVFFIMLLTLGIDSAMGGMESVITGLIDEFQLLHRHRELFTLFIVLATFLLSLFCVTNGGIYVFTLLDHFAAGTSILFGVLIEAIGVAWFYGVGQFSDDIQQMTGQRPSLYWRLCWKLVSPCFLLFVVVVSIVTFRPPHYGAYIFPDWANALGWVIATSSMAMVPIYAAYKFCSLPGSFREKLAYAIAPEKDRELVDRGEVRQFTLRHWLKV

[11] = target: GABA-A receptor; anion channel (Rattus norvegicus) (UniProt O09028+P15431+P18506+P18508+P19969+P20236+P23574+P23576+P28471+P28473+P30191+P62813+P63079+P63138+Q91ZM7+Q9ES14); settings: Compound concentration 10.0 uM
[12] = target: Delta-type opioid receptor (Homo sapiens) (UniProt P41143); settings: Compound concentration 10.0 uM
[13] = target: Monoamine oxidase A (MAO-A) (Homo sapiens, UniProt P21397); experiment: Inhibition of Monoamine Oxidase MAO-A at compound concentration of 10.0 uM in the Eurofins-Panlabs enzyme assay (Eurofins_assay_140010); set-up: substrate with concentration 50 uM Kynuramine, incubation time 60 min, incubation temperature 37 C; settings: recombinant human MAO-A expressed in insect Hi5 cells, probe Kynuramine (50 uM), compound concentration 10 uM
[14] = target: Progesterone receptor (Homo sapiens) (UniProt P06401); settings: Compound concentration 10.0 uM
[15] = target: 5-hydroxytryptamine receptor 2B (Homo sapiens) (UniProt P41595); settings: Compound concentration 10.0 uM
[16] = target: Beta-1 adrenergic receptor (Homo sapiens, UniProt P08588); experiment: Adrenoceptor reporter cell assay (ADRB1); format: functional
Chain of Beta-1 adrenergic receptor (P08588 whole entry): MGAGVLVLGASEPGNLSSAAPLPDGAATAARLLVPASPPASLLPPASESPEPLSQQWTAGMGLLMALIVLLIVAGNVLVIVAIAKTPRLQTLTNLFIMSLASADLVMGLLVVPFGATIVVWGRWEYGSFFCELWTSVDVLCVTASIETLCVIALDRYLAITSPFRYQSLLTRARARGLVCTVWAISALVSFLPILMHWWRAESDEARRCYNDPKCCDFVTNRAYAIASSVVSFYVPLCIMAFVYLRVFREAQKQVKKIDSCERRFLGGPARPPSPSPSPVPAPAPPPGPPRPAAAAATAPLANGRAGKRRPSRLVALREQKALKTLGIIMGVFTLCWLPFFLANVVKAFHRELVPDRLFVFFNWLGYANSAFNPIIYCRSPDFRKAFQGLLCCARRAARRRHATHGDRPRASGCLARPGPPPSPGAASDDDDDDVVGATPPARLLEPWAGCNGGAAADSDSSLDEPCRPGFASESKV

[17] = target: Beta-2 adrenergic receptor (Homo sapiens, UniProt P07550); settings: Compound concentration 10.0 uM
Chain of Beta-2 adrenergic receptor (P07550 whole entry, looked up): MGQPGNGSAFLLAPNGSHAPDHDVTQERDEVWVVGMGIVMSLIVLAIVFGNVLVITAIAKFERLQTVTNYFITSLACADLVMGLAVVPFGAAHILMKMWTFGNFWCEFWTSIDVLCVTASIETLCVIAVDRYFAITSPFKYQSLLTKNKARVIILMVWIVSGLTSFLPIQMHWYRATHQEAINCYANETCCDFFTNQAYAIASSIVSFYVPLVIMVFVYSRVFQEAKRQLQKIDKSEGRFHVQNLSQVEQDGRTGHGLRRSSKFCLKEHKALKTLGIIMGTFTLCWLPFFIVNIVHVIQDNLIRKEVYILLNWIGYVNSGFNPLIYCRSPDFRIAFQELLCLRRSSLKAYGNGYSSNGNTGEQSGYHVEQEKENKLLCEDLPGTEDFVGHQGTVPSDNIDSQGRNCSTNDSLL

D(2) dopamine receptor [18] = target: T1, D(2) dopamine receptor; settings: Compound concentration 10.0 uM; remark: listed apart in the source
[19] = target: Type-2 angiotensin II receptor (Homo sapiens) (UniProt P50052); settings: Compound concentration 10.0 uM
Chain of Type-2 angiotensin II receptor (Homo sapiens) (P50052 whole entry): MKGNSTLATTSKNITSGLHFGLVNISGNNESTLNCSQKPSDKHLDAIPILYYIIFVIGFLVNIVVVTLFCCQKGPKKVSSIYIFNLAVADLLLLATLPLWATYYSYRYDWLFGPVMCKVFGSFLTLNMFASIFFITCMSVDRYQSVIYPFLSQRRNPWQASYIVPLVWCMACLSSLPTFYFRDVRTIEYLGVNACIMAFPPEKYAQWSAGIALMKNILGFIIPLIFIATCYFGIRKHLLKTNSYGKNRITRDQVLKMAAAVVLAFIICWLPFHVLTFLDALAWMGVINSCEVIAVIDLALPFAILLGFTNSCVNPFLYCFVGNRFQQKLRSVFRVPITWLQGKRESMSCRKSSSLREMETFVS

[20] = target: T2, 5-hydroxytryptamine receptor 1A (Homo sapiens) (UniProt P08908); settings: Compound concentration 10.0 uM
T2 sequence (whole entry): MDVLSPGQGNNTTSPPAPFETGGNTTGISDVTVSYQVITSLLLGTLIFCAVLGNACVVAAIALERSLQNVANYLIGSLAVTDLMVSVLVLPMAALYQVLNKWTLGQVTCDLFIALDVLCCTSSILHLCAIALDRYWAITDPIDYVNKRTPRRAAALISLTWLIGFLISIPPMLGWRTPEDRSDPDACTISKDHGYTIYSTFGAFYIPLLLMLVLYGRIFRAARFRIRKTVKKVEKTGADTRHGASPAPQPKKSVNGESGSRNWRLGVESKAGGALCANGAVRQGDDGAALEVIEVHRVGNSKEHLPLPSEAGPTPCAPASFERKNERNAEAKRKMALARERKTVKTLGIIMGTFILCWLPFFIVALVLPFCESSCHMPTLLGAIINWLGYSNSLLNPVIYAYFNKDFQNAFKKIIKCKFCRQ

[21] = target: Histamine H1 receptor (Homo sapiens) (UniProt P35367); settings: Compound concentration 10.0 uM
[22] = target: Growth hormone secretagogue receptor type 1 (Homo sapiens) (UniProt Q92847); settings: Compound concentration 10.0 uM
[23] = target: Alpha-1D adrenergic receptor (Homo sapiens, UniProt P25100); experiment: Adrenoceptor reporter cell assay (ADRA1D); format: functional
Chain of Alpha-1D adrenergic receptor (P25100 whole entry): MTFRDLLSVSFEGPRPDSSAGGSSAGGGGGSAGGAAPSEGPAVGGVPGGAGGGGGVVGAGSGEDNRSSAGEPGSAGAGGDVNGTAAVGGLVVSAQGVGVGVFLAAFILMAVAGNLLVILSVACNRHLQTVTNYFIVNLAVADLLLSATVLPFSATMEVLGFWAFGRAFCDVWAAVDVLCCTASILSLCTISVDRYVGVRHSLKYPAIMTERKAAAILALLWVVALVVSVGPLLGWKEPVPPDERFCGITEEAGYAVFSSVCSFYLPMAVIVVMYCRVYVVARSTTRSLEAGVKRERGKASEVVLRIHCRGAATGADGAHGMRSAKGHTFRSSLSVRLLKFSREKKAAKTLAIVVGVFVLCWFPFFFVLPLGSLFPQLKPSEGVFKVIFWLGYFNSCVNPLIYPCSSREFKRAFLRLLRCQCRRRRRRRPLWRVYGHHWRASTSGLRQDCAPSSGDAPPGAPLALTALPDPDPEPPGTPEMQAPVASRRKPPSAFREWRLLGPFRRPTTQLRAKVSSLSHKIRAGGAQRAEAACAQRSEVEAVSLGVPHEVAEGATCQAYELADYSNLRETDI

[24] = target: Sodium-dependent serotonin transporter (Homo sapiens) (UniProt P31645); settings: Compound concentration 10.0 uM
Chain of Sodium-dependent serotonin transporter (Homo sapiens) (P31645 whole entry, looked up): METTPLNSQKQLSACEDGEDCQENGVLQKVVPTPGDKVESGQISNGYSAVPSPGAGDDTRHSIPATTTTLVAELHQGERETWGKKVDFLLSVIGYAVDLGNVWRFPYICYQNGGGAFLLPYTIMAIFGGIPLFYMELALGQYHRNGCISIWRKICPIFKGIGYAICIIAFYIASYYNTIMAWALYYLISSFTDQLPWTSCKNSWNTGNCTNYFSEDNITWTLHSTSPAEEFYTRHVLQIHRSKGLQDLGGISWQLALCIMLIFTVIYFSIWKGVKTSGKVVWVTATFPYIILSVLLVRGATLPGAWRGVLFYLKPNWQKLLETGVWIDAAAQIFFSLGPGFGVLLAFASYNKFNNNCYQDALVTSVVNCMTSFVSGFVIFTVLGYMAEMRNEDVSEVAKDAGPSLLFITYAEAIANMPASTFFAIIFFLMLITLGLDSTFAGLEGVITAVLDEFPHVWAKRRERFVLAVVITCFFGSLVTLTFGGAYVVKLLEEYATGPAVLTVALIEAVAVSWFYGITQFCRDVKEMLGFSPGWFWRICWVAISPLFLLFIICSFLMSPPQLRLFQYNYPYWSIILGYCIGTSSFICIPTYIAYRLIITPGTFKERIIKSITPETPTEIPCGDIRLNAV

[25] = target: T3, Alpha-2B adrenergic receptor (Homo sapiens, UniProt P18089); experiment: GPCRScan assay: inhibition of Alpha2B; set-up: radioligand conc. used [nm] 1.5 – 2.0, parental cells HEKT
T3 sequence (P18089 whole entry): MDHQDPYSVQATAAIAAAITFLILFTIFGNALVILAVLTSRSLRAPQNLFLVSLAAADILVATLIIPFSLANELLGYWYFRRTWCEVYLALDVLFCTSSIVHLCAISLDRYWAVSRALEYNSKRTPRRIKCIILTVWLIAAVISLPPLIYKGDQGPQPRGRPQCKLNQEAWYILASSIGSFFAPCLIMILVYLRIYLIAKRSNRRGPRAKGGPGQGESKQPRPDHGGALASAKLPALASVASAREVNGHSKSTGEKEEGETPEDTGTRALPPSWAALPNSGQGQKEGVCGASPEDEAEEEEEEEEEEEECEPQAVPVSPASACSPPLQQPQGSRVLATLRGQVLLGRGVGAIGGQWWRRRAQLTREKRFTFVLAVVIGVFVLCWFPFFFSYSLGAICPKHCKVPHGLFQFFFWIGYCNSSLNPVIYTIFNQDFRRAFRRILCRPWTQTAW

[26] = target: Alpha-2B adrenergic receptor (Homo sapiens) (UniProt P18089); settings: filed as antagonist, Compound concentration 10.0 uM
[27] = target: T3, Alpha-2B adrenergic receptor; experiment: Adrenoceptor Reporter Cell Assay (ADRA2B); format: functional
[28] = target: 5-hydroxytryptamine receptor 1A (Homo sapiens, UniProt P08908); experiment: GPCRScan assay: inhibition of 5-HT1A; set-up: radioligand conc. used [nm] 0.5 – 1.0, parental cells stable CHO
[29] = target: Alpha-2B adrenergic receptor (Canis lupus familiaris, UniProt Q2MDQ0); experiment: Cell based assay dog (ADRA2B); format: functional

Question: `CNc1cc[n+](CCNC(=O)c2ccn3c(-c4c(C)noc4C)cnc3c2)cc1` was tested. Which inhibition [1] did it give?
Answer: 4%

Question: What about the inhibition at 60 min, 10 µM [2] of the same compound?
Answer: 6% (not active)

Question: And the inhibition (D(2) dopamine receptor [3])?
Answer: -5.2%

Question: What about the inhibition [4] of the same compound?
Answer: 0.2%

Question: And the inhibition [5]?
Answer: 10.6%

Question: And the inhibition [6]?
Answer: -2.7%

Question: What about the inhibition [7] of the same compound?
Answer: -6.3%

Question: And the inhibition [8]?
Answer: -0.4%

Question: What about the inhibition [9] of the same compound?
Answer: -6.7%

Question: What about the inhibition [10] of the same compound?
Answer: 20.3%

Question: And the inhibition [11]?
Answer: -3.7%

Question: What about the inhibition [12] of the same compound?
Answer: -5.3%

Question: And the inhibition at 60 min, 10 µM [13]?
Answer: -13.8% (not active)

Question: What about the inhibition [14] of the same compound?
Answer: 11.8%

Question: And the inhibition [15]?
Answer: 0%

Question: What about the IC50 [16] of the same compound?
Answer: > 10 µM (not active)

Question: What about the inhibition [17] of the same compound?
Answer: -4.49%

Question: What about the inhibition (D(2) dopamine receptor [18]) of the same compound?
Answer: -1.6%

Question: And the inhibition [19]?
Answer: 4.1%

Question: What about the inhibition [20] of the same compound?
Answer: 25.3%

Question: And the inhibition [21]?
Answer: 0.5%

Question: What about the inhibition [22] of the same compound?
Answer: 2.3%

Question: And the IC50 [23]?
Answer: > 10 µM (not active)

Question: And the inhibition [24]?
Answer: 0.4%

Question: How did the pKi ([25]; read-out: Ki) turn out when `Cc1noc(C)c1-c1cnc2cc(C(=O)NCCC[n+]3ccc(N(C)C)cc3)ccn12` was run?
Answer: 5.56

Question: What about the Ki ([25]; read-out: pKi (converted)) of the same compound?
Answer: 2.51 µM

Question: What about the inhibition [26] of the same compound?
Answer: 54.6%

Question: What about the IC50 [27] of the same compound?
Answer: 7.1 µM (not active)

Question: And the pKi ([28]; read-out: Ki)?
Answer: 6.67

Question: And the Ki ([28]; read-out: pKi (converted))?
Answer: 0.182 µM

Question: And the IC50 [29]?
Answer: 10 µM (not active)
